The values below come from US6911475B1, “Use of nicotine or its derivatives in a drug for treating neurological disease, in particular Parkinson's disease” (Assistance Publique-Hopitaux de Paris, priority 1999, dated 2005).

Assay [1] concerns Parkinson's disease. The procedure: Clinical evaluation of the effect of the drug of the invention and of the treatment method was carried out using conventional UPDRS I, II and III neurological tests. These tests enabled both neuro-psychological and physical effects to be measured.
The UPDRS I test measures, on a scale of 0 to 4, mentation, behaviour and mood of the patient, taking into account the criteria of intellectual impairment, thought disorder, depression and motivation/initiative.
The UPDRS II test measures a series of sensory or motor physical tests, also on a scale of 0 to 4.
The UPDRS III test measures the motor activity of the patient, again on a scale of 0 to 4.
Zero indicates a normal state and four indicates maximum perturbation.
Clinical evaluation was based on the L-DOPA test and was carried out as follows:
The UPDRS test used is described below.
It consisted of halting the L-DOPA therapy to a zero dose 12 to 24 hours before the test.
The next day, every half hour, the condition and the clinical changes in the patient was measured during stoppage (“off” period, no L-DOPA) then the clinical changes during resumption (“on” period with L-DOPA). The time was measured using a chronometer.
This test was carried out with UPDRS measurements as described above: • motor UPDRS (Unified Parkinson's Disease Rating Scale); • UPDRS I (mental state of patient); • UPDRS II (daily life, on-off); ADL (activities of daily living); • Self-evaluation test (test carried out by the patient, verification and confirmation by physician of fluctuations in on-off periods during the day).

The subject of assay [2] is Parkinson's disease. As to the method:
(§1) The physical symptoms studied were: tremor, axial rigidity, gait and speech. The neuro-psychological symptoms were memory and sexual activity.
(§2) Over a period of six months, nicotine patches were administered to the patient, firstly using increasing doses over the first three months to reach a dose of 102 mg per day and then by combining two types of patch, namely a patch in the form of a slow release patch (patch P) and rapid release patches (patch R). Each patch P contained 21 mg of nicotine and each patch R contained 15 mg of nicotine.
Overall, the daily dose was 21 mg the first month and stabilized at 102 mg from the fourth month, divided into 42 mg under slow release and 60 mg under rapid release.
Concomitantly, L-DOPA was administered in a decreasing dose with time; in contrast, the bromocriptine dose was unchanged and remained at 30 mg per day over the entire treatment, as shown in Table II below.
The source holds these as a separate data set.

Assay [3] has as its system Parkinson's disease. The procedure:
as §1, §2
The source holds these as a separate data set.

Setting [4] is: Re-administer nicotine at 102 mg/kg/d, after a period without nicotine.

Where two headings read alike, the source gives them in different places.

`CN1CCCC1c1cccnc1` (centres unmarked) [nicotine]: the “UPDRS I (mental state)” value in assay [1] (With nicotine treatment (6 months later), day 0 without nicotine: 10) was 0. Also, in assay [1] (With nicotine treatment (6 months later), off = no L-DOPA, day 0 without nicotine: 22), the “UPDRS II off (daily activity, ADL)” value was found to be 10. The “UPDRS II on (daily activity, ADL)” value in assay [1] (With nicotine treatment (6 months later), on = with L-DOPA, day 0 without nicotine: 13) turned out to be 6. Further, the “UPDRS score for the "off" periods (FIG. 2)” value in assay [1] (no L-DOPA, 30 mg bromocriptine, over nicotine treatment, except in the seventh month (nicotine interrupted)) is listed as “reduction in the score”. Besides, in assay [1] (with L-DOPA (250 mg first test, 187.50 mg after six months), 30 mg bromocriptine, over nicotine treatment), the “UPDRS measurements in the "on" periods (FIG. 2)” value is “constant decrease”. In addition, in assay [2] (setting [4]), the Axial rigidity came to 0, the Gait is 0, the Speech is given as 0 and the Tremor stood at 1. In assay [2] (With nicotine treatment), this molecule displayed an Axial rigidity of 0, a Gait of 0 and a Speech of 0. In assay [2] (With nicotine treatment, patient, concomitant L-DOPA and 30 mg/day bromocriptine, 0 = normal, 4 = maximum perturbation), this molecule displayed a Tremor of 1. In assay [2] (nicotine treatment, Table III), the “Axial rigidity (in words)” value is given as “completely abolished”; the “Gait and speech (in words)” value is “normalised”. Further, the “Symptomatic effect of stopping administration of nicotine” value in assay [2] (stopping nicotine in the eighth month) was “no symptomatic effect”. Besides, the “Sexual problems and urinary dysfunction” value in assay [3] (after four months of treatment, problems present for two years) is “completely re-established functions”. Further, in assay [3] (under nicotine treatment), the Depressive episodes result is “reduced” and the Memory disorders entry is reported as “reduced”. In addition, the “Neuro-psychological manifestations of Parkinson's disease” value in assay [3] (within six months from commencing treatment) is “disappeared completely”.
